Source: patent US11219625B2, “Inhibitors of N-linked glycosylation and methods using same” (YALE UNIVERSITY, priority 2015, dated 2022)

How the values were obtained:
Assay type in all cases: cell-based
[1] = Celltiter Glo viability assay, HEK293; details: human, HEK293 cells; HEK293, 72 h of compound exposure; read-out: Cytotoxicity Assay Mean EC50
Description: (§1) The HTS approach using the bioluminescent N-linked glycosylation reporter (CCR 2011) in D54-ERLucT and D54-LucT cells has been previously described (Bennett, et al., Transl Oncol 2013, 6, 382-391). Briefly, the primary cell-based screen detects site occupancy of NLG sequons using a modified luciferase protein translated into the ER. […] The methodology for the primary (D54-ERlucT), secondary (D54-LucT), and tertiary (luciferase inhibition) screens as well and toxicity assays with CelltitreGlo are deposited in Pubchem (AID 588693).
(§2) To better understand the connection between structure and activity, analogs were prepared and tested in the D54-ERLucT cell based assay for inhibition of N-linked glycosylation (FIG. 1B). The assay was used to estimate and compare AC40 values among analogs and to guide the design of improved compounds that inhibited N-linked glycosylation. This effort generated 36 unique compounds with modifications to the amine component of the sulfonamide functionality (red), the pyrrolidine moiety (blue) or the methylaminothiazole group (green). Generally, incorporation of larger sulfonamides (i.e., larger secondary amines appended to the sulphone) was not well tolerated, resulting in erosion of potency (7 analogs). However, steric interactions could be mitigated by the introduction of a hydrogen bond accepting oxygen in a larger cyclic amine. Thus, morpholine was determined to be an acceptable surrogate for the dimethylamine component of the sulfonamide (FIGS. 1A-1D). The pyrrolidine group (blue) was replaced with various alkyl, cycloalkyl, and amine groups (7 compounds). The aminothiazole moiety was derivatized most extensively of all three regions (green highlighted area, 22 analogs). […] Analogs with the highest potency in the luciferase assay were retested with western blot analysis to insure that measurements of luciferase activation corresponded to loss of N-linked glycosylation.

HEK293 cells = assay: Celltiter Glo viability assay, HEK293; details: HEK293 EC50 over NLG AC40
Description: as §1, §2

OST = assay: 35S metabolic labeling of pSAP and SHBG in Hela cells
Experimental: FIGS. 2A-2I illustrate the finding that NGI-1 blocks OST function. FIG. 2A illustrates the western blots of glycosylated luciferase (Luc) after treatment with 1 μM tunicmaycin (Tn) and 10 μM NGI-1 in CHO-Lec15 and CHO-Lec35 cells with stable expression of ER-LucT. FIG. 2B is a […] illustrating FACE analysis of lipid linked oligosaccharides (LLOs). FIG. 2C is a series of western blots illustrating the effects of NGI-1 (5 μM) on free oligosaccharides (left panel) and N-linked glycans cleaved from peptides with Peptide-N-Glycosidase F (right panel). Carbohydrate size is indicated with glucose markers (G4-G7). FIG. 2D is a western blot illustrating cell free inhibition of the OST using a rabbit reticulocyte lysate translation system supplemented with canine pancreas rough microsomes (cRM). Saposin-DDK-His6 mRNA was translated for 60 min in the presence of ^35S methionine and the indicated concentration of NGI-1 or Tn. […] FIG. 2E comprises a series of western blots illustrating results from NGI-1 compared to siRNA knockdown of STT3A or STT3B. Glycoforms are represented by 0-5n and 0-2n respectively and average number of glycans per sample is reported for each condition. NC=non-coding siRNA, EH=endoglycosidase H treated. […] FIGS. 2G-2H: Dose response and quantitation of NGI-1 effect on pSAP (squares) and SHBG glycosylation (circles). […]

SMILES: Cc1cnc(NC(=O)c2cc(S(=O)(=O)N(C)C)ccc2N2CCCC2)s1 [NGI-1, 5-(N,N-Dimethylsulfamoyl)-N-(5-methylthiazol-2-yl)-2-(pyrrolidin-1-yl)benzamide]
- EC50 at 72 h [1]: > 30 µM
- Selectivity (EC50/AC40) (HEK293 cells): >172
- glycosylation of pSAP and SHBG sites (OST; 10 μM NGI-1, 24 h, compared to STT3A/STT3B knockdown): reduced glycosylation of all sites on pSAP and SHBG
- reversibility of OST inhibition (OST; NGI-1 24 h prior to, during 20 min labeling, or both): reversible OST inhibitor
